From PubChem BioAssay AID602459 (Sanford-Burnham Center for Chemical Genomics, 2012)

Target: Neurotensin receptor type 1 (Homo sapiens) (UniProt P30989)
Assay: NTR1 agonist-evoked calcium mobilization, SAR follow-up, cell-based, fluorescence, calcium flux, dose response (AID 602459)
Settings: NTR1-expressing cells, agonist mode

Chain of Neurotensin receptor type 1 (Homo sapiens) (P30989 whole entry, looked up): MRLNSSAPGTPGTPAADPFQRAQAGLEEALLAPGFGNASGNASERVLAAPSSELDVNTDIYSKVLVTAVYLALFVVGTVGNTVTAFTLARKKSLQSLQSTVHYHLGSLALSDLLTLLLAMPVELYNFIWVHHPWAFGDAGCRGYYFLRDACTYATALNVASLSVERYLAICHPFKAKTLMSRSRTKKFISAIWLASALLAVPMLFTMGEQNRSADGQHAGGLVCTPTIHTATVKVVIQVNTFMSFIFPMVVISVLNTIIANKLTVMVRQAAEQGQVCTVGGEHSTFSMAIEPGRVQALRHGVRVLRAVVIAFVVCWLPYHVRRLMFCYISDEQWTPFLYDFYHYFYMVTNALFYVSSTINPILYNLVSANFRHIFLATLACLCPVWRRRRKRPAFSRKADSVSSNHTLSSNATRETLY

| EC50 | SMILES |
| --- | --- |
| < 156 nM | COc1cccc(OC)c1-c1cc(C(=O)N[C@@H](CC(C)C)C(=O)O)nn1-c1ccnc2cc(Cl)ccc12 |
| 298 nM | COc1cccc(OC)c1-c1nc(C(=O)N[C@@H](CC(C)C)C(=O)O)cn1-c1ccnc2cc(Cl)ccc12 |
| 1500 nM | COc1cc2c3nnc(-c4ccc(F)cc4)c-3cn(Cc3cccc(C)c3)c2cc1OC |
